Experiments:
HeLa = assay: Cytotoxicity against Homo sapiens (human) HeLa cells after 48 hr by MTT assay; type: functional, cell-based
[1] = Inhibition of TNFalpha-induced NF-kappaB activity (unknown origin) expressed in HeLa cells cotreated with compound and 10 ng/ml TNF-alpha for 24 hr by reporter gene assay; type: cell-based, Homo sapiens
[2] = Homo sapiens, HeLa, 24 h, read-out: IC50

| Structure (SMILES) | Activity (HeLa) | IC50 ([1]; hela) | IC50 [1, 2] [mg/L] |
| --- | --- | --- | --- |
| CC[C@H](CC[C@@H](C)[C@H]1CC[C@H]2[C@@H]3CC=C4C[C@@H](O)CC[C@]4(C)[C@H]3CC[C@]12C)C(C)C [BETA-SITOSTEROL] | Dose-dependent effect | Not Active | – |
| CC1=C(O)C(=O)C=C2C1=CC=C1[C@@]2(C)CC[C@@]2(C)[C@@H]3C[C@](C)(C(=O)O)CC[C@]3(C)CC[C@]12C [CELASTROL] | Dose-dependent effect | – | 0.72 |
| CC(C)[C@@H](C)/C=C/[C@@H](C)[C@H]1CC[C@H]2C3=CC=C4C[C@@H](O)CC[C@]4(C)[C@H]3CC[C@]12C [ERGOSTEROL] | Dose-dependent effect | – | 0.91 |
| CC[C@H](/C=C/[C@@H](C)[C@H]1CC[C@H]2[C@@H]3CC=C4C[C@@H](O)CC[C@]4(C)[C@H]3CC[C@]12C)C(C)C [STIGMASTEROL] | Dose-dependent effect | Not Active | – |
